Measured values: article PMC12434534, “Synthesis and Antiviral Evaluation of Unexplored Dioxolane-Derived 7‑Deazapurine Nucleoside Analogues against Epstein–Barr Virus (EBV)” (ACS Medicinal Chemistry Letters, 2025)
Like-named read-outs stand apart in the source and are kept apart here.

How the values were obtained:
EBV = assay: Anti-EBV assay: reduction of EBV DNA synthesis (qPCR) in TPA-induced P3HR-1 cells; details: for EC50: human gammaherpesvirus 4, P3HR-1, 120 h, read-out: EC50, Antiviral Activity against EBV (in P3HR-1 Cells); for EC90: human gammaherpesvirus 4, P3HR-1, read-out: EC90, Antiviral Activity against EBV (in P3HR-1 Cells); for SI (CC50/EC50), EBV: selectivity index = CC50/EC50, P3HR-1 cells
Experimental: The antiviral potency of all synthesized nucleosides was evaluated by in-vitro cell-based assays. P3HR-1 cells were seeded in 24-well plates at a density of 1 × 10^6 cells/mL. EBV replication was induced by adding 25 ng/mL 12-O-tetradecanoylphorbol 13-acetate (TPA) (Sigma–Aldrich, Bornem, Belgium) to the growing cells. The next day, cells were washed and resuspended in fresh medium in the presence or absence of various concentrations of synthesized nucleosides (12–19). Ganciclovir (GCV) was used as antiviral control. On day 5 post-induction, total cellular DNA was extracted (QIAamp DNA kit; Qiagen Benelux B.V, Venlo, The Netherlands), and viral DNA was quantified by quantitative PCR (qPCR) using an ABI Prism 7500 Sequence Detection System (Applied Biosystems, Foster City, CA). Thermocycling conditions for all qPCRs were done following the manufacturer’s instructions. […] The results were obtained as a means from at least three independent experiments. The selectivity index of the compound was determined by the ratio of CC50/EC50. For both efficacy and cytotoxicity assays, the 50% reduction in efficacy (EC50) and cell viability (CC50) was determined using GraphPad software (GraphPad, San Diego, CA, USA, www.graphpad.com).
0.2, 0.04, 0 μM). TPA was removed after 24 h, and the same concentration of compounds was […]
replaced. […]
Real-time PCR detection of viral DNA: EBV DNA was extracted with a QIAGEN Dneasy Blood and Tissue Kit. The DNA volume was 30 μL. DNA concentration (ng/μL) was determined with a Nanophotometer (IMPLEN). The Real -time PCR was performed using QuantiTect Sybr Green PCR Kit. The amplicon was a 71 bp portion of the EBNA1 gene. The primers were […]
(§1) The 20 μL PCR sample contained 100 ng
DNA, 10 μL Universal PCR Master Mix, primer (0.5 uM final concentration), 1 μL BamH I-HF (Restriction Enzyme, BioLabs) and RNase -free water. The PCR program consisted of 1 cycle at 50 °C, 2 minutes of UNG pretreatment, followed by 1 cycle at 95 °C for 15 minutes. Then 40 cycles of 94 °C for 15 seconds, 55 °C for 30 seconds, and 72 °C for 30 seconds were carried out.
(§2) Evaluation of Cytotoxicity: The cytotoxic effects of test compounds for P3HR1 and TZN-GFP cells were determined by CellTiter 96 Non-Radioactive Cell Proliferation assay system (Promega) using either 2,3-Bis-(2-Methoxy-4-nitro-5-sulfophenyl)-2H-tetrazolium-5-carboxanilide, disodium salt (XTT) or 3- (4,5-dimethylthiazol-2-yl)-2,5-diphenyltetrazolium bromide (MTT) methods under the same conditions as the antiviral assay but in the absence virus. Cells were seeded at a density of 1 x 105 (P3HR-1) or 2 x 104 (TZM-GFP) cells per well in 96-well plates and […]

[1] = Cytotoxicity in P3HR-1 cells (XTT or MTT assay); format: cell-based; details: human
HIV-FL = assay: microbe, parasite or virus in culture
Experimental: First, TZM-GFP cells were seeded in the 96-well plate (10 000/well), and after 24 h, selected compounds and HIV FL virus (MOI = 0.1) were added to the plate. […] At 48 h post-infection (hpi), GFP production due to infection was measured by Cytation 5, and a 50% reduction in efficacy (EC50) and cell viability (CC50) were determined using GraphPad software (San Diego, CA, USA, www.graphpad.com). […]
(10,000/well), and after 24 h, selected compounds and HIV FL (MOI=0.1) virus were added to the […]
plate. […] At 48 h post-infection (hpi), the GFP cells were measured by Cytation 5, and a 50% reduction in efficacy (EC50) and cell viability (CC50) was determined using GraphPad software (San Diego, California, www.graphpad.com). […]
as §2

[2] = Cytotoxicity in TZM-GFP cells (XTT or MTT assay); format: cell-based; details: human; concentration reducing cellular viability by 50% after 48 h, XTT or MTT assay; TZM-GFP cells
Experimental: (§3) plate. […] At 48 h post-infection (hpi), the
(§4) Blood and Tissue Kit. The DNA volume was 30 μL. DNA concentration (ng/μL) was determined with a Nanophotometer (IMPLEN). The Real -time PCR was performed using QuantiTect Sybr […]
(§5) Green PCR Kit. […] The primers were
as §1
(§6) (Restriction Enzyme, BioLabs) and RNase -free water. The PCR program consisted of 1 cycle at […]
(§7) allowed to incubate overnight. On the second day, different concentrations of test compounds were […]
(§8) added to respective cells. Following 4 days of incubation at 37 °C in a CO2 incubator, the MTT or […]
(§9) XTT reagent was added, and the cells were incubated for 3 hours at 37 °C. Subsequently, the […]
(§10) absorbance of the samples was measured using a microplate reader (Biotek). The cytotoxic […]
(§11) concentration (CC50) was determined based on the viability of mock-infected cells. […]

TZM-GFP cells = assay: Cytotoxicity in TZM-GFP cells (XTT or MTT assay); format: cell-based
Experimental: as §3, §4, §5, §1, §6, §7, §8, §9, §10, §11

[3] = concentration reducing cellular viability by 50% after 48 h, XTT or MTT assay, P3HR-1 cells, read-out: CC50 (P3HR-1 Cells)
[4] = Human immunodeficiency virus 1, read-out: EC50, Antiviral Activity against HIV-FL (in TZM-GFP Cells)

| Structure (SMILES) | antiviral activity against EBV (in words) (EBV; P3HR-1 cells) | EC50 (EBV) [nM] | EC90 (EBV) [nM] | CC50 at 48 h [1, 3] [µM] | EC50 (HIV-FL; [4]) [µM] | CC50 at 48 h [2] [µM] | potency against EBV relative to ganciclovir (times more potent) (EBV; EC50 compared with GCV, P3HR-1 cells) | SI (CC50/EC50), EBV (EBV) | CC50 at 48 h [1] [µM] | EC50 (HIV-FL; read-out: EC50, Antiviral Activity against HIV-FL (in TZM-GFP Cells), 48 hpi, MOI = 0.1, TZM-GFP cells, mean of at least three experiments) [µM] | SI (CC50/EC50), HIV-FL (HIV-FL; selectivity index = CC50/EC50, TZM-GFP cells) | CC50 (TZM-GFP cells) [µM] |
| --- | --- | --- | --- | --- | --- | --- | --- | --- | --- | --- | --- | --- |
| Nc1ncnc2c1ccn2[C@H]1CO[C@@H](CO)O1 [Compound 12] | inactive | > 25000 | > 25000 | 91.3 | 5.85 ± 1.01 | > 100 |  |  |  |  |  |  |
| Nc1ncnc2c1c(F)cn2[C@H]1CO[C@@H](CO)O1 [Compound 13] |  | 1200 ± 1800 | 2280 ± 1290 | 71.3 ± 25.6 | 3.96 ± 0.39 | > 100 |  |  |  |  |  |  |
| Nc1ncnc2c1c(Cl)cn2[C@H]1CO[C@@H](CO)O1 [Compound 14] |  | 12500 ± 800 | > 25000 | > 100 | 28.7 ± 0.45 | 88 |  |  |  |  |  |  |
| Nc1ncnc2c1c(Br)cn2[C@H]1CO[C@@H](CO)O1 [Compound 15, 7-Bromo-deazapurine-D-dioxolane nucleoside] | potent anti-EBV activity | 170 | 540 ± 360 | 49.9 | 20.8 ± 0.25 | 41.9 | 14 | 294 |  |  |  |  |
| Nc1ncnc2c1c(I)cn2[C@H]1CO[C@@H](CO)O1 [Compound 16] | potent anti-EBV activity | 470 ± 200 | 1500 ± 90 | 21.2 | 10.3 ± 0.39 | 11.9 |  | 45 |  |  |  |  |
| Nc1nc(N)c2ccn([C@H]3CO[C@@H](CO)O3)c2n1 [Compound 17] |  | 11900 ± 300 |  | > 100 |  |  |  | >8 |  |  |  |  |
| Nc1nc(F)nc2c1ccn2[C@H]1CO[C@@H](CO)O1 [Compound 18] |  | 15500 ± 3700 | > 23900 | 91.7 |  |  |  | 6 |  |  |  |  |
| CNc1nc(N)nc2c1ccn2[C@H]1CO[C@@H](CO)O1 [Compound 19] | inactive | > 25000 |  | 13.3 |  |  |  |  |  |  |  |  |
| Nc1nc(O)c2ncn(COC(CO)CO)c2n1 [GCV, ganciclovir, reference compound] |  | 2500 ± 220 | 16200 ± 210 |  |  |  |  | >40 | > 100 |  |  |  |
| C=Cc1cn([C@@H]2CO[C@H](CO)O2)c(=O)[nH]c1=O [L-HDVD, reference compound] |  | 120 ± 10 | 520 ± 40 | > 100 |  |  |  | >833 |  |  |  |  |
| Cc1[nH]c2ccccc2c1CC(=O)N[C@@H](Cc1ccccc1)C(=O)N(C)c1ccccc1 [PF-74, reference compound] |  |  |  |  |  |  |  |  |  | 0.6 ± 0.05 | >166 | > 100 |
